# According to publication PMC6155027, “Mechanistic insights into the host-microbe interaction and pathogen exclusion mediated by the Mucus-binding protein of Lactobacillus plantarum” (Scientific Reports, 2018):
# Target: T1, Mubs5s6 (Lactiplantibacillus plantarum, UniProt F9UP14)
# T1 construct: gene lp_1643; last two (fifth and sixth) C-terminal Mub domains with spacers of the about 2200-residue Lp_1643 protein; 366 residues, about 40 kDa; expressed in E. coli as MBP fusion (82 kDa), MBP tag removable with Factor Xa
# Experiment: biochemical assay (details in supplement)
# Format: binding
# Conditions: site predicted by COACH (Asn42, Gly43, Asn224, Thr227, Asn228, Gln229); assay conditions only in supplement
# T1 sequence (F9UP14 entry or part of it): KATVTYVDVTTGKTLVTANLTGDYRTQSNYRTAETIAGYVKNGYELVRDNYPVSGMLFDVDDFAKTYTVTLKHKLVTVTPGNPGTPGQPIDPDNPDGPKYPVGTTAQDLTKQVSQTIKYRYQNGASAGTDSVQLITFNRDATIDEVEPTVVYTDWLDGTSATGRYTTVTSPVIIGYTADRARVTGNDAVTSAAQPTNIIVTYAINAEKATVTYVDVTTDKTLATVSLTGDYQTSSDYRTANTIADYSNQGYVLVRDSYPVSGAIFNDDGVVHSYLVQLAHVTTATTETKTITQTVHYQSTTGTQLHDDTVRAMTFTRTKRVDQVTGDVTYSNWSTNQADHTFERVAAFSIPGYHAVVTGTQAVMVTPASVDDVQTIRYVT
smiles,measurement,value
OC[C@H]1OC(O)[C@H](O)[C@@H](O)[C@@H]1O (stereo partly shown) [glucose],biochemical assay (details in supplement),We could also confirm the binding of calcium and glucose by Atomic Absorption Spectroscopy and biochemical assay
